Values quoted from earlier work in patent US10799550B2, “Oral compositions comprising beta-escin for reducing acetaldehyde toxicity” (ESCILAB SP. Z O.O., priority 2016, dated 2020).

Tested on: ethanol absorption
Settings: rats

SMILES | effect on ethanol absorption
C/C=C(\C)C(=O)O[C@H]1[C@H](OC(C)=O)[C@]2(CO)[C@H](O)C[C@]3(C)C(=CC[C@@H]4[C@@]5(C)CC[C@H](O[C@@H]6O[C@H](C(=O)O)[C@@H](O[C@@H]7O[C@H](CO)[C@@H](O)[C@H](O)[C@H]7O)[C@H](O)[C@H]6O[C@@H]6OC[C@@H](O)[C@H](O)[C@H]6O)[C@](C)(CO)[C@@H]5CC[C@]43C)[C@@H]2CC1(C)C [escin IIa] | inhibitory effect
C/C=C(\C)C(=O)O[C@H]1[C@H](OC(C)=O)[C@]2(CO)[C@H](O)C[C@]3(C)C(=CC[C@@H]4[C@@]5(C)CC[C@H](O[C@@H]6O[C@H](C(=O)O)[C@@H](O[C@@H]7O[C@H](CO)[C@@H](O)[C@H](O)[C@H]7O)[C@H](O)[C@H]6O[C@@H]6O[C@H](CO)[C@@H](O)[C@H](O)[C@H]6O)[C@](C)(CO)[C@@H]5CC[C@]43C)[C@@H]2CC1(C)C [escin Ia] | inhibitory effect
C/C=C(/C)C(=O)O[C@H]1[C@H](OC(C)=O)[C@]2(CO)[C@H](O)C[C@]3(C)C(=CC[C@@H]4[C@@]5(C)CC[C@H](O[C@@H]6O[C@H](C(=O)O)[C@@H](O[C@@H]7O[C@H](CO)[C@@H](O)[C@H](O)[C@H]7O)[C@H](O)[C@H]6O[C@@H]6O[C@H](CO)[C@@H](O)[C@H](O)[C@H]6O)[C@](C)(CO)[C@@H]5CC[C@]43C)[C@@H]2CC1(C)C [escin Ib] | inhibitory effect
C/C=C(/C)C(=O)O[C@H]1[C@H](OC(C)=O)[C@]2(CO)[C@H](O)C[C@]3(C)C(=CC[C@@H]4[C@@]5(C)CC[C@H](O[C@@H]6O[C@H](C(=O)O)[C@@H](O[C@@H]7O[C@H](CO)[C@@H](O)[C@H](O)[C@H]7O)[C@H](O)[C@H]6O[C@@H]6OC[C@@H](O)[C@H](O)[C@H]6O)[C@](C)(CO)[C@@H]5CC[C@]43C)[C@@H]2CC1(C)C [escin IIb] | inhibitory effect
